Measured values: paper PMC10584170, “Machine learning-based phenotypic imaging to characterise the targetable biology of Plasmodium falciparum male gametocytes for the development of transmission-blocking antimalarials” (PLOS Pathogens, 2023)

Key:
[1] = tested on: P. falciparum male gametocytes; test: PhIDDLI timecourse assay, compound added at timepoints after triggering male gametogenesis; type: cell-based, Plasmodium falciparum NF54; conditions: for cells with late phenotype / cells forming exflagellation centres: compound added at 10 min post-induction; for cells forming exflagellation centres: DMSO control 17.2%; for arrest of gametogenesis: compound added concurrent with triggering gametogenesis
[2] = tested on: P. berghei ookinete development; test: P. berghei Ookinete Development Assay (PbODA); type: cell-based, Plasmodium berghei; conditions: Mean TOX HepG2 over Pb ODA value; GREEN = >10-fold; RED = <10-fold
[3] = tested on: P. falciparum protein kinase G (PfPKG); conditions: cited from earlier work

| Structure (SMILES) | cells with late phenotype [1] [%] | cells forming exflagellation centres [1] [%] | arrest of gametogenesis [1] | Cytotox ratio Pb Ookinete [2] | activity against recombinant PfPKG [3] |
| --- | --- | --- | --- | --- | --- |
| CC(C)(CNC(=O)[C@H]1CCCCN1)c1nc(-c2ccc(Cl)c(O)c2)c(-c2ccncc2)[nH]1.Cl [TC04] | 86.3 | 0.4 | near total arrest | – | – |
| CC(C)(CN)c1nc(-c2ccc(Br)c(O)c2)c(-c2ccncc2)[nH]1.Cl [TC13] | 83.3 | 2.7 | near total arrest | 38479.3 | had activity |
| Cl.NCC1(c2nc(-c3ccc(Cl)c(O)c3)c(-c3ccncc3)[nH]2)CCCCC1 [TC41] | 84.9 | 1.1 | near total arrest | 14844.9 | – |
